{"source": "paper PMC3385512", "about": "(Science Translational Medicine, 2012)", "key": {"[1]": {"target": "Ba/F3 cells expressing EML4-ALK L1196M (Homo sapiens, UniProt Q9HC35+Q9UM73, L1196M)", "test": "Ba/F3 cell survival assay", "type": "cell-based", "conditions": "without IL-3"}, "[2]": {"target": "T1, Ba/F3 cells expressing EML4-ALK G1202R (Homo sapiens, UniProt Q9HC35+Q9UM73, G1202R)", "T1 sequence (Q9HC35+Q9UM73 with tags, fused parts or gaps Q9UM73:G1202R)": "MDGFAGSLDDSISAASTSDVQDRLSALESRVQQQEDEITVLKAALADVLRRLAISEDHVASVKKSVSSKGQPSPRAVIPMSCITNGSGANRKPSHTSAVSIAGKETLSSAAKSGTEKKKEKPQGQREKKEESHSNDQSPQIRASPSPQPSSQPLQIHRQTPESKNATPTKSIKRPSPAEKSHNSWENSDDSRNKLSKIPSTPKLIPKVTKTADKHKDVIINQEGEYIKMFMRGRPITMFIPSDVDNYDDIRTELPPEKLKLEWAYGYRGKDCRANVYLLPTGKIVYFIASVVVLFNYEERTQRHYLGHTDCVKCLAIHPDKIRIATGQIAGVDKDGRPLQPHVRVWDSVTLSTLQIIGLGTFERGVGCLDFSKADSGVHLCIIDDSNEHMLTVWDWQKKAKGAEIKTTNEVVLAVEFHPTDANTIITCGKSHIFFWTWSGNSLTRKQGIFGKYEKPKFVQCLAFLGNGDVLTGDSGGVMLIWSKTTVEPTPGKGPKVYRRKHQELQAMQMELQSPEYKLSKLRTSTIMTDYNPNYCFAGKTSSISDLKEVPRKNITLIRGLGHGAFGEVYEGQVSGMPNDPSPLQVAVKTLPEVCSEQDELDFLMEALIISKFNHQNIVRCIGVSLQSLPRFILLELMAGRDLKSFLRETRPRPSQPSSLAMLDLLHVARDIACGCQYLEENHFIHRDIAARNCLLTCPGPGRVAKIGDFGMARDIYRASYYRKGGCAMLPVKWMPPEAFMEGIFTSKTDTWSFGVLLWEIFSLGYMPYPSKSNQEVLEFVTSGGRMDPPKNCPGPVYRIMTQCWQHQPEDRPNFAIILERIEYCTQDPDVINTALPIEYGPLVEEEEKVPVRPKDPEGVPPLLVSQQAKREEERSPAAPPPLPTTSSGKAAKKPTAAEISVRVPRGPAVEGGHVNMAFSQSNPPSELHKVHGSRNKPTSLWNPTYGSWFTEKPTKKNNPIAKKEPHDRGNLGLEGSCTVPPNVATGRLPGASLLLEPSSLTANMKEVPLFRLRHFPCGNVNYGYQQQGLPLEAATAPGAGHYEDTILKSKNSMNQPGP", "test": "Ba/F3 cell survival assay", "type": "cell-based"}, "[3]": {"target": "T2, Ba/F3 cells expressing EML4-ALK S1206Y (Homo sapiens, UniProt Q9HC35+Q9UM73, S1206Y)", "T2 sequence (Q9HC35+Q9UM73 with tags, fused parts or gaps Q9UM73:S1206Y)": "T1 sequence (Q9HC35+Q9UM73 with tags, fused parts or gaps Q9UM73:G1202R) with R641G, S645Y", "test": "Ba/F3 cell survival assay", "type": "cell-based", "conditions": "without IL-3"}, "[4]": {"target": "Ba/F3 cells expressing EML4-ALK 1151Tins (Homo sapiens, UniProt Q9HC35+Q9UM73, DUP1151-1151)", "test": "Ba/F3 cell survival assay", "type": "cell-based", "conditions": "Ba/F3 EML4-ALK 1151Tins, without IL-3"}, "[5]": {"test_system": "parental, IL-3-dependent Ba/F3 cells", "test": "Ba/F3 cell survival assay", "type": "cell-based, murine", "conditions": "parental Ba/F3 cells cultured with IL-3 (off-target toxicity control)"}, "[6]": {"test_system": "phosphorylation of EML4-ALK", "test": "phospho-ALK immunoblotting in Ba/F3 cells", "type": "cell-based", "conditions": "all Ba/F3 lines expressing wild-type or mutant EML4-ALK"}, "[7]": {"test_system": "H3122 CR2 cells", "test": "cell survival assay", "type": "cell-based"}, "[8]": {"test_system": "H3122 CR3 cells", "test": "cell survival assay", "type": "cell-based", "conditions": "for sensitivity in cell survival assay: H3122 CR3 (no ALK mutation, EGFR activation), gefitinib 2 μM in combination"}, "[9]": {"test_system": "H3122 cells", "test": "cell survival assay", "type": "cell-based", "conditions": "parental H3122 cells (EML4-ALK variant 1)"}, "[10]": {"test_system": "H3122 cells", "test": "apoptosis assay", "type": "cell-based", "conditions": "parental H3122, 1 μM crizotinib, 72 hours"}, "[11]": {"test_system": "MGH006 cells", "conditions": "from crizotinib-naive ALK-positive NSCLC patient"}, "[12]": {"test_system": "H3122 CR3 cells", "conditions": "H3122 CR3, 1 μM crizotinib, 2 μM gefitinib or the combination, 72 hours"}, "[13]": {"test_system": "H3122 CR1 cells", "test": "cells", "conditions": "Homo sapiens, NCI-H3122, 72 h"}, "[14]": {"test_system": "KIT-overexpressing H3122 cells", "conditions": "imatinib 1 μM with crizotinib 1 μM and SCF 100 ng/ml"}, "[15]": {"target": "Ba/F3 cells expressing wild-type EML4-ALK (Homo sapiens, UniProt Q9HC35+Q9UM73)", "test": "Ba/F3 cell survival assay", "type": "cell-based", "conditions": "without IL-3"}, "[16]": {"target": "ALK (V1058-P1620) wild type (Homo sapiens, UniProt Q9UM73)", "sequence (Q9UM73 1058-1620)": "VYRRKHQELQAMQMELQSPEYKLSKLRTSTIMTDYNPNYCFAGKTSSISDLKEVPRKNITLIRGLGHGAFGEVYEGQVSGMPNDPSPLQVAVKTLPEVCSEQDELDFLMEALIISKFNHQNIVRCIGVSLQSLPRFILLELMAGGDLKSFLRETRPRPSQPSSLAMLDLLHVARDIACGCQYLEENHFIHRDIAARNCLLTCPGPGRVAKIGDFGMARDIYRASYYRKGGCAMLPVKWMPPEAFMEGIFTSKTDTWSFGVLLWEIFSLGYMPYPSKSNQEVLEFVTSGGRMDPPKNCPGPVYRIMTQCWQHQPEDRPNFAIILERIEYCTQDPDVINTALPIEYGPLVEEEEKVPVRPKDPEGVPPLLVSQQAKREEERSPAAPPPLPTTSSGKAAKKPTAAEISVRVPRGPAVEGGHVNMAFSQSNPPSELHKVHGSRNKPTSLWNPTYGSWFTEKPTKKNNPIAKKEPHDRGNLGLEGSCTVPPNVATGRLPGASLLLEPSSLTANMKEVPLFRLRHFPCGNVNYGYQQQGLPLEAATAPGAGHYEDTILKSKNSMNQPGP", "test": "in vitro kinase assay", "type": "biochemical", "conditions": "in vitro kinase assay data, tables S1 and S2"}}, "data": [{"smiles": "C=CCNC1=C2C[C@@H](C)C[C@H](OC)[C@H](O)[C@@H](C)/C=C(\\C)[C@H](OC(N)=O)[C@@H](OC)/C=C\\C=C(/C)C(=O)NC(=CC1=O)C2=O", "note": "[17-AAG, 17-allylamino-17-demethoxygeldanamycin]", "values": [{"measurement": "potency / resistance in cell survival assay", "setting": "[1]", "value": "highly active"}, {"measurement": "potency / resistance in cell survival assay", "setting": "[2]; Ba/F3 EML4-ALK G1202R, without IL-3", "value": "highly active"}, {"measurement": "potency / resistance in cell survival assay", "setting": "[3]", "value": "highly active"}, {"measurement": "potency / resistance in cell survival assay", "setting": "[4]", "value": "highly active"}, {"measurement": "activity in cell survival assay", "setting": "[5]", "value": "at relatively low concentrations"}, {"measurement": "effect on phospho-ALK and total ALK protein levels", "setting": "[6]", "value": "decreased both phospho-ALK and total ALK protein levels"}, {"measurement": "sensitivity in cell survival assay", "setting": "[7]; H3122 CR2 (1151Tins)", "value": "highly susceptible"}, {"measurement": "sensitivity in cell survival assay", "setting": "[8]", "value": "resistant"}]}, {"smiles": "C[C@@H](Oc1cc(-c2cnn(C3CCNCC3)c2)cnc1N)c1c(Cl)ccc(F)c1Cl", "note": "[crizotinib]", "values": [{"measurement": "sensitivity in cell survival assay", "setting": "[9]", "value": "highly sensitive"}, {"measurement": "IC50", "setting": "[7]; Homo sapiens, NCI-H3122, 72 h", "value": "> 1000", "unit": "nM"}, {"measurement": "sensitivity in cell survival assay", "setting": "[8]", "value": "resistant"}, {"measurement": "IC50", "setting": "[8]; Homo sapiens, NCI-H3122, 72 h", "value": "> 1000", "unit": "nM"}, {"measurement": "induction of apoptosis", "setting": "[10]", "value": "marked apoptosis"}, {"measurement": "sensitivity in cell survival assay", "setting": "[11]", "value": "sensitive"}, {"measurement": "induction of apoptosis", "setting": "[12]", "value": "failed to induce apoptosis"}, {"measurement": "IC50", "setting": "[13]", "value": "> 1000", "unit": "nM"}]}, {"smiles": "COc1cc2ncnc(Nc3ccc(F)c(Cl)c3)c2cc1OCCCN1CCOCC1", "note": "[gefitinib]", "values": [{"measurement": "sensitivity in cell survival assay", "setting": "[8]", "value": "resistant"}, {"measurement": "induction of apoptosis", "setting": "[12]", "value": "failed to induce apoptosis"}]}, {"smiles": "Cc1ccc(NC(=O)c2ccc(CN3CCN(C)CC3)cc2)cc1Nc1nccc(-c2cccnc2)n1", "note": "[imatinib]", "values": [{"measurement": "effect on crizotinib-resistant phenotype", "setting": "[14]", "value": "completely reversed the resistant phenotype"}]}, {"smiles": "COc1cc(N2CCC(N3CCN(C)CC3)CC2)ccc1Nc1ncnc(Nc2ccccc2S(=O)(=O)C(C)C)n1", "note": "[ASP-3026]", "values": [{"measurement": "potency in cell survival assay", "setting": "[15]", "value": "not as potent as crizotinib and CH5424802"}, {"measurement": "shift in IC50 compared to wild-type ALK (fold)", "setting": "[2]; Ba/F3 EML4-ALK G1202R relative to wild-type", "value": "fourfold"}, {"measurement": "potency and selectivity against wild-type ALK in vitro", "setting": "[16]", "value": "relatively potent and selective"}]}, {"smiles": "COc1cc(N2CCC(N3CCN(C)CC3)CC2)ccc1Nc1ncc(Cl)c(Nc2ccccc2S(=O)(=O)C(C)C)n1", "note": "[NVP-TAE684]", "values": [{"measurement": "activity in cell survival assay", "setting": "[5]", "value": "less effective"}]}]}
